Reference: patent US12312308B2, “Salts and esters of APX3330 and therapeutic uses thereof” (Opus Genetics, Inc., priority 2022, dated 2025)
Where a name gives a salt, the structure may show the parent alone.

Assay: Dynamic vapor sorption (DVS) analysis
Type: physicochemical

SMILES: CCCCCCCCC/C(=C\C1=C(C)C(=O)C(OC)=C(OC)C1=O)C(=O)O [Compound 1 calcium salt]
- maximum water adsorption (DVS, at 82% RH): about 1.52%
- water retained at the end of the desorption branch (DVS, end of desorption branch): 0.19%
- crystalline form after DVS (subsequent XRPD analysis) (post-DVS sample vs pre-DVS sample, XRPD): maintained the same crystalline form
